Consider 18 compounds from PubChem BioAssay AID330 (DTP/NCI, 2004).

“And” between values parts separate entries of the source, which are not always exact repeats. Identical values can stand only once. Inconclusive results and toxic doses are left out.

For this assay, the system named is P388 leukemia ip, CD2F1 mice, survival T/C. In words: NCI In Vivo Anticancer Drug Screen. Data for tumor model P388 Leukemia (intraperitoneal) in CD2F1 (CDF1) mice. To be noted: endpoint: median survival time, higher = longer survival. The essentials:
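Mice carrying the transplanted tumor received test compound or vehicle. Survival was recorded in each group, and the value is the treated-group measurement divided by that of the vehicle-treated control group.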

[1] abbreviates: dose: 100.0 mg/kg/injection, schedule: Q01DX009 (ip), vehicle: saline with Tween-80.
[2] abbreviates: dose: 200.0 mg/kg/injection, schedule: Q01DX009 (ip), vehicle: saline with Tween-80.
Setting [3] is: dose: 60.0 mg/kg/injection, schedule: Q01DX005 (ip), vehicle: saline with Tween-80.
Where [4] appears, read: dose: 120.0 mg/kg/injection, schedule: Q01DX005 (ip), vehicle: saline with Tween-80.
The mark [5] stands for this setting: dose: 240.0 mg/kg/injection, schedule: Q01DX005 (ip), vehicle: saline with Tween-80.

On to `COc1ccc(Cc2cc3c(cc2OC)OCO3)cc1`, for which the T/C is 99 % of control (dose: 2.5 mg/kg/injection, schedule: Q01DX009 (ip), vehicle: saline with Tween-80); 99 % of control (dose: 5.0 mg/kg/injection, schedule: Q01DX009 (ip), vehicle: saline with Tween-80); 99 % of control (dose: 10.0 mg/kg/injection, schedule: Q01DX009 (ip), vehicle: saline with Tween-80); 102 % of control (dose: 15.0 mg/kg/injection, schedule: Q01DX005 (ip), vehicle: saline with Tween-80); 102 % of control (dose: 31.0 mg/kg/injection, schedule: Q01DX005 (ip), vehicle: saline with Tween-80); 109 % of control (dose: 62.5 mg/kg/injection, schedule: Q01DX005 (ip), vehicle: saline with Tween-80). The T/C (dose: 125.0 mg/kg/injection, schedule: Q01DX005 (ip), vehicle: saline with Tween-80) was 103 % of control and the T/C (dose: 250.0 mg/kg/injection, schedule: Q01DX005 (ip), vehicle: saline with Tween-80) was 103 % of control.

Consider `CCOC(=O)CSc1nnc(-c2cc(OC)c(OCC)c(OC)c2)o1`, for which the T/C was 102 % of control (dose: 62.5 mg/kg/injection, schedule: Q01DX001 (ip), vehicle: Klucel (hydroxypropylcellulose) (HPC)); 102 % of control (dose: 125.0 mg/kg/injection, schedule: Q01DX001 (ip), vehicle: Klucel (hydroxypropylcellulose) (HPC)); 100 % of control (dose: 250.0 mg/kg/injection, schedule: Q01DX001 (ip), vehicle: Klucel (hydroxypropylcellulose) (HPC)).

Take `COc1ccc(C2=NOP(c3ccccc3)(c3ccccc3)(c3ccccc3)C2)cc1`: the T/C (dose: 1.56 mg/kg/injection, schedule: Q01DX009 (ip), vehicle: water) is 102 % of control; the T/C (dose: 3.13 mg/kg/injection, schedule: Q01DX009 (ip), vehicle: water) was 106 % of control; the T/C (dose: 6.25 mg/kg/injection, schedule: Q01DX009 (ip), vehicle: water) is 90 % of control; the T/C (dose: 12.5 mg/kg/injection, schedule: Q01DX009 (ip), vehicle: water) was 107 % of control; the T/C (dose: 25.0 mg/kg/injection, schedule: Q01DX009 (ip), vehicle: other) was 99 % of control; the T/C (dose: 25.0 mg/kg/injection, schedule: Q01DX009 (ip), vehicle: water) is 104 % of control. Besides, the T/C is, setting by setting: (dose: 50.0 mg/kg/injection, schedule: Q01DX009 (ip), vehicle: Klucel (hydroxypropylcellulose) (HPC)) 105 % of control; (dose: 100.0 mg/kg/injection, schedule: Q01DX009 (ip), vehicle: Klucel (hydroxypropylcellulose) (HPC)) 101 % of control; (dose: 200.0 mg/kg/injection, schedule: Q01DX009 (ip), vehicle: Klucel (hydroxypropylcellulose) (HPC)) 101 % of control.

`CC(C)Cc1c[nH]c(=O)[nH]c1=O`: the T/C by setting is: under setting [1], 95 % of control; under setting [2], 95 % of control; (dose: 400.0 mg/kg/injection, schedule: Q01DX009 (ip), vehicle: saline with Tween-80) 91 % of control.

On to `C(=C\c1ccccn1)/c1ccc(/C=C/c2ccccn2)cc1`, for which the T/C under setting [3] is 98 % of control, the T/C under setting [4] was 103 % of control and the T/C under setting [5] is 97 % of control.

On to `O=c1cc(CCl)[nH]nc1CCl`, for which the T/C is, setting by setting: (dose: 14.5 mg/kg/injection, schedule: Q04DX003 (ip), vehicle: saline with Tween-80) 160 % of control; (dose: 33.0 mg/kg/injection, schedule: Q04DX003 (ip), vehicle: saline with Tween-80) 158 % of control; (dose: 50.0 mg/kg/injection, schedule: Q04DX003 (ip), vehicle: saline with Tween-80) 173 % of control.

Take `C1CNNCCNN1`: the T/C runs as follows: (dose: 50.0 mg/kg/injection, schedule: Q01DX009 (ip), vehicle: saline) 112 % of control; (dose: 100.0 mg/kg/injection, schedule: Q01DX009 (ip), vehicle: saline) 106 % of control and 108 % of control and 90 % of control; (dose: 200.0 mg/kg/injection, schedule: Q01DX009 (ip), vehicle: saline) 109 % of control and 115 % of control and 89 % of control; (dose: 400.0 mg/kg/injection, schedule: Q01DX009 (ip), vehicle: saline) 112 % of control and 120 % of control and 93 % of control; (dose: 800.0 mg/kg/injection, schedule: Q01DX009 (ip), vehicle: saline) 121 % of control.

Consider `O=Cc1ccc2nc(C(Cl)(Cl)Cl)ccc2c1`, for which the T/C is, setting by setting: (dose: 50.0 mg/kg/injection, schedule: Q01DX009 (ip), vehicle: saline with Tween-80) 100 % of control; under setting [1], 105 % of control; under setting [2], 100 % of control.

In the case of `COC(=O)C1=C2Nc3ccccc3C23CCN2C(O)C4(CC5CC67CCOC6CCN6CCC8(c9cccc(OC)c9N(C4)C58O)C67)C4OCCC4(C1)C23` (stereo not drawn), the T/C was 96 % of control (dose: 3.12 mg/kg/injection, schedule: Q01DX005 (ip), vehicle: Klucel (hydroxypropylcellulose) (HPC)); 99 % of control (dose: 6.25 mg/kg/injection, schedule: Q01DX005 (ip), vehicle: Klucel (hydroxypropylcellulose) (HPC)); 99 % of control (dose: 12.5 mg/kg/injection, schedule: Q01DX005 (ip), vehicle: Klucel (hydroxypropylcellulose) (HPC)); 87 % of control and 89 % of control (dose: 25.0 mg/kg/injection, schedule: Q01DX005 (ip), vehicle: Klucel (hydroxypropylcellulose) (HPC)).

With `CCCCC(O)(c1ccc2nc(NC(=O)OC)[nH]c2c1)c1cccs1` (stereo not drawn), the T/C reads like this: (dose: 25.0 mg/kg/injection, schedule: Q01DX005 (ip), vehicle: other) 110 % of control; (dose: 50.0 mg/kg/injection, schedule: Q01DX005 (ip), vehicle: other) 107 % of control; (dose: 100.0 mg/kg/injection, schedule: Q01DX005 (ip), vehicle: other) 110 % of control; (dose: 200.0 mg/kg/injection, schedule: Q01DX005 (ip), vehicle: other) 104 % of control.

For `O=C(S)CC1(O)CCCCC12OC2c1ccccc1` (stereo not drawn), the T/C by setting is: (dose: 100.0 mg/kg/injection, schedule: Q01DX001 (ip), vehicle: Klucel (hydroxypropylcellulose) (HPC)) 99 % of control; (dose: 200.0 mg/kg/injection, schedule: Q01DX001 (ip), vehicle: Klucel (hydroxypropylcellulose) (HPC)) 104 % of control; (dose: 400.0 mg/kg/injection, schedule: Q01DX001 (ip), vehicle: Klucel (hydroxypropylcellulose) (HPC)) 103 % of control.

On to `COC(=O)N1c2ccccc2N(C(=O)OC)c2c1oc1ccccc1c2=O`, for which the T/C runs as follows: under setting [3], 92 % of control; under setting [4], 91 % of control; under setting [5], 101 % of control.

Take `COC(=O)[C@@H]1C(=O)[C@H](C(=O)OC)C2CCCC3CCCC1N32` (stereo partly drawn): the T/C (dose: 50.0 mg/kg/injection, schedule: Q01DX005 (ip), vehicle: saline with Tween-80) was 98 % of control and the T/C (dose: 100.0 mg/kg/injection, schedule: Q01DX005 (ip), vehicle: saline with Tween-80) was 98 % of control.

For `CCOP(=S)(N/N=C/c1c(CO)cnc(C)c1O)OCC`, the T/C is 98 % of control (dose: 50.0 mg/kg/injection, schedule: Q01DX005 (ip), vehicle: Klucel (hydroxypropylcellulose) (HPC)); 102 % of control (dose: 100.0 mg/kg/injection, schedule: Q01DX005 (ip), vehicle: Klucel (hydroxypropylcellulose) (HPC)); 101 % of control (dose: 200.0 mg/kg/injection, schedule: Q01DX005 (ip), vehicle: Klucel (hydroxypropylcellulose) (HPC)).

Turning to `CC(C)(C)C1CCC(=NSC(c2ccccc2)(c2ccccc2)c2ccccc2)CC1` (stereo not drawn), the T/C is, setting by setting: (dose: 100.0 mg/kg/injection, schedule: Q04DX002 (ip), vehicle: saline with Tween-80) 95 % of control; (dose: 200.0 mg/kg/injection, schedule: Q04DX002 (ip), vehicle: saline with Tween-80) 87 % of control; (dose: 400.0 mg/kg/injection, schedule: Q04DX002 (ip), vehicle: saline with Tween-80) 89 % of control.

For `COC(=O)C(C)Oc1ccc(OC#N)cc1` (stereo not drawn), the T/C under setting [3] is 102 % of control, the T/C under setting [4] is 101 % of control and the T/C under setting [5] is 93 % of control.

Take `CCOC(=O)[C@H]1C(CC)=NOC1C` (stereo partly drawn): the T/C by setting is: under setting [3], 102 % of control; under setting [4], 102 % of control; under setting [5], 101 % of control.

Take `C1CC[N-]CC1.C1CC[N-]CC1.C1CC[N-]CC1.C1CC[N-]CC1.[Pt+4]`: the T/C runs as follows: (dose: 2.0 mg/kg/injection, schedule: Q01DX009 (ip), vehicle: saline) 95 % of control; (dose: 4.0 mg/kg/injection, schedule: Q01DX009 (ip), vehicle: saline) 89 % of control; (dose: 8.0 mg/kg/injection, schedule: Q01DX009 (ip), vehicle: saline) 93 % of control.
